Test results from patent publication US10111929B1, “Growth hormone releasing factor analogs and uses” (EZ IP, LLC, priority 2017, dated 2018).

Key:
Format in all cases: in vivo
[1] = tested on: total cholesterol; experiment: Human clinical trials: total cholesterol levels in participant blood samples; conditions: majority of clinical trial participants; with or without amino acids; absence of additional measures
Method: (§1) Two challenges were being considered at the beginning of the human clinical trial. The first challenge was to document the stand-alone efficacy of HTA-8 as a new growth hormone releasing factor. The second was to determine if HTA-8 could be combined with other common releasing factors to create an even better result. As such, two separate trials were conducted. • Trial #1/HTA-8: Ten individuals ranging in age from 30 to 69 years were given 30 ng of HTA-8 in the form of an aerosolized oral spray before bed, over a 30-32 day period. • Trial #2/HTA-8+: Fifteen individuals ranging in age from 38 to 70 years of age were given an effervescent tablet to take once daily over a 25-36 day period that contained 20 ng of HTA-8 in combination with 1200 mg each of the amino acids lysine and arginine. (Previous published experimentation has shown that the combination of lysine and arginine in the doses used in Trial #2 is an effective GH releasing factor.)
The principal hormone measured in order to establish whether there is an increase in growth hormone secretion is IGF-1. IGF-1 concentrations and total cholesterol levels were determined by collecting participant blood samples at the beginning of the studies and at their conclusion. […]

[2] = Human clinical trials: ultrasound-based body composition analysis and body weight; conditions: all study participants in both clinical trials
Method: as §1

[3] = tested on: IGF-1; experiment: Human clinical trials: IGF-1 concentrations in participant blood samples
Method: as §1
The principal hormone measured in order to establish whether there is an increase in growth hormone secretion is IGF-1. IGF-1 concentrations and total cholesterol levels were determined by collecting participant blood samples at the beginning of the studies and at their conclusion.

[4] = Human clinical trials: radial bone density by ultrasonographic technique; conditions: subjects taking HTA-8 alone (Trial #1)
Method: as §1
An increase in bone density decreases the chance of fracture and […]. Bone density is a particularly important issue as the body ages, regardless of sex. During the Clinical Trials, radial bone density was measured using an ultrasonographic technique.

## H-D-Ala-D-2-Nal-Trp-H is-Trp-D-Phe-Lys-N H2 [HTA-8]
[1]
  change in total cholesterol levels over the study period: clinically significant decrease
[2]
  change in adipose tissue mass: decrease in adipose tissue mass
  change in lean muscle mass: increase in lean muscle mass
[3]; Trial #1: 30 ng HTA-8 oral spray before bed, 30-32 days, person
  maximum IGF-1 level measured in all clinical trial participants after the study period: 410 ng/mL
[3]; Trial #1: HTA-8 alone, oral spray
  GHRF activity (IGF-1 response): bona fide, stand-alone GHRF
[3]; Trial #2: effervescent tablet once daily, 20 ng HTA-8 with 1200 mg each lysine and arginine, after 25-36 day period
  IGF-1 level on average, after (increased to): 202 ng/mL
[3]; Trial #2: effervescent tablet once daily, 20 ng HTA-8 with 1200 mg each lysine and arginine, beginning of study
  IGF-1 level on average, before (increased from): 170 ng/mL
[4]
  average increase in bone density: 6.8%
